Test results as given in ChEMBL document CHEMBL1137550, “New potent acetylcholinesterase inhibitors in the tetracyclic triterpene series” (J Med Chem, 2007).

Columns and labels:
Acetylcholinesterase [1] = molecular target: T1, Acetylcholinesterase (Bos taurus, UniProt P23795); experiment: Inhibition of bovine erythrocytes AChE by Ellman's method
T1 sequence (P23795 whole entry): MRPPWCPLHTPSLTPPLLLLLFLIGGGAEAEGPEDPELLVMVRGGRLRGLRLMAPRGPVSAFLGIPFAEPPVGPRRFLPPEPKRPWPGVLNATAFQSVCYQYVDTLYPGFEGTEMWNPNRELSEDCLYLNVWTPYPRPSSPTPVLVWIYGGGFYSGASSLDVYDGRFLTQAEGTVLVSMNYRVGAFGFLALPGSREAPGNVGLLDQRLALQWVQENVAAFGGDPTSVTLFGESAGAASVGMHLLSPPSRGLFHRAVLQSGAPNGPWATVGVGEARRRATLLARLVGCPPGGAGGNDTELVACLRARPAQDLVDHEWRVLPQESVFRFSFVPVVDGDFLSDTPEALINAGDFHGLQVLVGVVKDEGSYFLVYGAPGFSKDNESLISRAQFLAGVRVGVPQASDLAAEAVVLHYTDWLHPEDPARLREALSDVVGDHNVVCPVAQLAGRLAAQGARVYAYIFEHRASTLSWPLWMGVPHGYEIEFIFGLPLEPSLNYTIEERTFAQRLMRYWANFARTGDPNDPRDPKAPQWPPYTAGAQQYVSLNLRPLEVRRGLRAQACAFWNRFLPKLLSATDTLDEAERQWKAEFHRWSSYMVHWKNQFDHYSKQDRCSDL

Acetylcholinesterase [2] = molecular target: Acetylcholinesterase (Homo sapiens, UniProt P22303)
Sequence of Acetylcholinesterase (Homo sapiens, UniProt P22303) (P22303 whole entry): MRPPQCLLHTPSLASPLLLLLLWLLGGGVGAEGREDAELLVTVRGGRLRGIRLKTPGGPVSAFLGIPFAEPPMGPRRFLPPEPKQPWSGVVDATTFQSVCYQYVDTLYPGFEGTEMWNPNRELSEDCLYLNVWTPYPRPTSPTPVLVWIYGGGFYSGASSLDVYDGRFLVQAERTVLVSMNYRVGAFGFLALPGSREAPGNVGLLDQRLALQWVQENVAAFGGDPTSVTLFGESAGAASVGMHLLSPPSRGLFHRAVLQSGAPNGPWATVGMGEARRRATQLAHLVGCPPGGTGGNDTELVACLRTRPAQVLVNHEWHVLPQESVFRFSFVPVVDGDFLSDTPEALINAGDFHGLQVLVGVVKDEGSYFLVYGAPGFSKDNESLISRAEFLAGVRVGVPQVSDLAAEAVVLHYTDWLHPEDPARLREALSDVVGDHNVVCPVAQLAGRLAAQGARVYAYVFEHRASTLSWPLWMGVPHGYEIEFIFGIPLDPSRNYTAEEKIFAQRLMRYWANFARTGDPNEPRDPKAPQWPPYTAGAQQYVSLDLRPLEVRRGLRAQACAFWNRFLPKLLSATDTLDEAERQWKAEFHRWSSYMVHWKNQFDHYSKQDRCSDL
Description: Inhibition of human recombinant AChE by Ellman's method

Cholinesterase = Cholinesterase (Homo sapiens, UniProt P06276)
Sequence of Cholinesterase (P06276 whole entry): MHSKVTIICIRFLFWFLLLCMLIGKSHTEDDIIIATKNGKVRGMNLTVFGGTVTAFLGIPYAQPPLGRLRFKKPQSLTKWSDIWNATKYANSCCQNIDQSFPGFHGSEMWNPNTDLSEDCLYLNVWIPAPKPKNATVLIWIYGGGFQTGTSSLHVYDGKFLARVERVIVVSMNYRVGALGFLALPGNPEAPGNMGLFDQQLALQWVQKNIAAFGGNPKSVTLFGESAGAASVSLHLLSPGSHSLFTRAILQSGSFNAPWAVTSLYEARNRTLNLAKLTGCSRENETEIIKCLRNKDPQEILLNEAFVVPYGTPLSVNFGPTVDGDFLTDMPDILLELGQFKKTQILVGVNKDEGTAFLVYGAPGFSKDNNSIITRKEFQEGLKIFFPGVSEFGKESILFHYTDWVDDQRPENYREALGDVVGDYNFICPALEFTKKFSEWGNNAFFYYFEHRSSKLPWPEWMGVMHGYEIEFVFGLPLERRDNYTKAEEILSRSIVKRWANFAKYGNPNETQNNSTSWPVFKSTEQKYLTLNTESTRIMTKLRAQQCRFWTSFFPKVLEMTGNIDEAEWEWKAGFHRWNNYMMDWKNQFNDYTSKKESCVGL
Description: Inhibition of human serum BuChE by Ellman's method

Acetylcholinesterase [3] = molecular target: Acetylcholinesterase (Torpedo californica, UniProt P04058)
Sequence of Acetylcholinesterase (Torpedo californica, UniProt P04058) (P04058 whole entry): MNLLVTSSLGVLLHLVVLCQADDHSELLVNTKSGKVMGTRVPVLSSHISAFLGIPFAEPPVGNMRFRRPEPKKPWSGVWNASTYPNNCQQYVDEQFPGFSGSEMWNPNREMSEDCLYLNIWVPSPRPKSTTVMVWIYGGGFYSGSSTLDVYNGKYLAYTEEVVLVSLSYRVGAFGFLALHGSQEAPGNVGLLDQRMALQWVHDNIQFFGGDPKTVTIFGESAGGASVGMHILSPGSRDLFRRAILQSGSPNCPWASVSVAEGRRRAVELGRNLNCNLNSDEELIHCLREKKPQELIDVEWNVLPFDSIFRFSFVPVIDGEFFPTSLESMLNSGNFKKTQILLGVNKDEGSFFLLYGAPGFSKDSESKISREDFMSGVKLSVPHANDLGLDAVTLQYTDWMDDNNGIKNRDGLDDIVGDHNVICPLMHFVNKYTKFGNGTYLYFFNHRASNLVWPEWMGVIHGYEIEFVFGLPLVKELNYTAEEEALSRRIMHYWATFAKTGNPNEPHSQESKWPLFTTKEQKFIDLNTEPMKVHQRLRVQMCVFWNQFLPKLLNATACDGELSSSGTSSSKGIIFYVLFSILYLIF
Description: Inhibition of Torpedo californica AChE by Ellman's method

Acetylcholinesterase [4] = molecular target: Acetylcholinesterase (Electrophorus electricus, UniProt O42275)
Sequence of Acetylcholinesterase (Electrophorus electricus, UniProt O42275) (O42275 whole entry): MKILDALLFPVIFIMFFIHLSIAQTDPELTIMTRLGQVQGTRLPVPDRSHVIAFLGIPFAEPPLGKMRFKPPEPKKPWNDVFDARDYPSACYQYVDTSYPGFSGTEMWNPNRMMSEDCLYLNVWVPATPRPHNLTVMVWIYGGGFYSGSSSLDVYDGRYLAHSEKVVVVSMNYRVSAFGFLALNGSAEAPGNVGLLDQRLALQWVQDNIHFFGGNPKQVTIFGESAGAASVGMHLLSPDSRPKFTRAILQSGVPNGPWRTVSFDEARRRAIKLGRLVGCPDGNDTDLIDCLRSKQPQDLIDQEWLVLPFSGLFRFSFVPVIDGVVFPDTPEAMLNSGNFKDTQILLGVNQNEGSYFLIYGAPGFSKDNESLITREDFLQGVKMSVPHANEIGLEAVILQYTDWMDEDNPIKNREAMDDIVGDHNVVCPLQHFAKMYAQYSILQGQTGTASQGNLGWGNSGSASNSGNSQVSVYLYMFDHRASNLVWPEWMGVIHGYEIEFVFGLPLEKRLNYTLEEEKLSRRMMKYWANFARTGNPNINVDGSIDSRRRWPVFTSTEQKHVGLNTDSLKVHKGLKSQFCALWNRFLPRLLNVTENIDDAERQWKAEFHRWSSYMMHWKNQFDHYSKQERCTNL
Description: Inhibition of Electrophorus electricus AChE by Ellman's method

Compound: CC[C@H](C)C1=N[C@H]2CC=C3C[C@H]4C(=O)C[C@]5(C)[C@@H]([C@H](C)N(C)C)[C@H](O)C[C@@]5(C)[C@@H]4CC[C@H]3[C@]2(C)CN1
- IC50 (Acetylcholinesterase [1]): 7350 nM
- IC50 (Acetylcholinesterase [2]): 3830 nM
- IC50 (Cholinesterase): > 10000 nM
- IC50 (Acetylcholinesterase [3]): 447 nM

Compound: CC[C@H](C)C(=O)N[C@H]1CC=C2C[C@H]3C(=O)C[C@]4(C)[C@@H]([C@H](C)N(C)C)[C@H](O)C[C@@]4(C)[C@@H]3CC[C@H]2[C@]1(C)/C=N/Cc1ccccc1
- IC50 (Cholinesterase): > 10000 nM

Compound: CC[C@H](C)C(=O)N[C@H]1CC[C@H]2C[C@H]3C(=O)C[C@]4(C)[C@@H]([C@H](C)N(C)C)[C@H](O)C[C@@]4(C)[C@@H]3CC[C@H]2[C@]1(C)CN
- IC50 (Acetylcholinesterase [4]): 1340 nM

Compound: CC[C@H](C)C(=O)N[C@H]1CC=C2C[C@H]3C(=O)C[C@]4(C)[C@@H]([C@H](C)N(C)C)[C@H](O)C[C@@]4(C)[C@@H]3CC[C@H]2[C@]1(C)CO
- IC50 (Acetylcholinesterase [4]): 105 nM
- IC50 (Cholinesterase): > 10000 nM

Compound: CN[C@@H](C)[C@H]1[C@H](O)C[C@@]2(C)[C@@H]3CC[C@@H]4C(=CC[C@@H]5N=C(C(C)C)OC[C@]54C)C[C@H]3C(=O)C[C@]12C
- IC50 (Acetylcholinesterase [1]): 2230 nM
- IC50 (Acetylcholinesterase [2]): 517 nM
- IC50 (Acetylcholinesterase [4]): 106 nM
- IC50 (Acetylcholinesterase [3]): 485 nM

Compound: CN[C@@H](C)[C@H]1[C@H](O)C[C@@]2(C)[C@@H]3CC[C@@H]4[C@@H](CC[C@H](NC(=O)C(C)C)[C@@]4(C)CO)C[C@H]3C(=O)C[C@]12C
- IC50 (Acetylcholinesterase [4]): 110 nM
- IC50 (Cholinesterase): 1440 nM

Compound: CC(C)C1=N[C@H]2CC[C@]34C[C@]35C(=O)C[C@]3(C)[C@@H]([C@H](C)N(C)C)[C@H](O)C[C@@]3(C)[C@@H]5CC[C@H]4[C@]2(C)CN1
- IC50 (Acetylcholinesterase [1]): 3280 nM
- IC50 (Acetylcholinesterase [2]): 3110 nM
- IC50 (Acetylcholinesterase [4]): 18 nM
- IC50 (Cholinesterase): > 10000 nM
- IC50 (Acetylcholinesterase [3]): 2 nM

Compound: CC[C@H](C)C1=N[C@H]2CC[C@]34C[C@]35C(=O)C[C@]3(C)[C@@H]([C@H](C)N(C)C)[C@H](O)C[C@@]3(C)[C@@H]5CC[C@H]4[C@]2(C)CN1
- IC50 (Acetylcholinesterase [1]): 6490 nM
- IC50 (Acetylcholinesterase [2]): 4370 nM
- IC50 (Acetylcholinesterase [4]): 14 nM
- IC50 (Acetylcholinesterase [3]): 2 nM

Compound: CC[C@H](C)C(=O)N[C@H]1CC=C2C[C@H]3C(=O)C[C@]4(C)[C@@H]([C@H](C)N(C)C)[C@H](O)C[C@@]4(C)[C@@H]3CC[C@H]2[C@]1(C)CN
- IC50 (Cholinesterase): > 10000 nM

Compound: CC(C)[C@H]1N[C@H]2CC=C3C[C@H]4C(=O)C[C@]5(C)[C@@H]([C@H](C)N(C)C)[C@H](O)C[C@@]5(C)[C@@H]4CC[C@H]3[C@]2(C)CO1
- IC50 (Acetylcholinesterase [4]): 2380 nM
- IC50 (Cholinesterase): > 10000 nM

Compound: CCC(CC)C1=N[C@H]2CC=C3C[C@H]4C(=O)C[C@]5(C)[C@@H]([C@H](C)N(C)C)[C@H](O)C[C@@]5(C)[C@@H]4CC[C@H]3[C@]2(C)CO1
- IC50 (Cholinesterase): 1540 nM

Compound: C[C@@H]([C@H]1[C@H](O)C[C@@]2(C)[C@@H]3CC[C@@H]4C(=CC[C@@H]5N=C(C(C)(C)C)OC[C@]54C)C[C@H]3C(=O)C[C@]12C)N(C)C
- IC50 (Acetylcholinesterase [1]): 1180 nM
- IC50 (Acetylcholinesterase [2]): 351 nM
- IC50 (Cholinesterase): > 10000 nM
- IC50 (Acetylcholinesterase [3]): 372 nM

Compound: CC(C)C(=O)N[C@H]1CC[C@H]2C[C@H]3C(=O)C[C@]4(C)[C@@H]([C@H](C)N(C)C)[C@H](O)C[C@@]4(C)[C@@H]3CC[C@H]2[C@]1(C)CN
- IC50 (Acetylcholinesterase [4]): 291 nM

Compound: CC(C)C(=O)N[C@H]1CCC23CC24C(=O)C[C@]2(C)[C@@H]([C@H](C)N(C)C)[C@H](O)C[C@@]2(C)[C@@H]4CC[C@H]3[C@]1(C)CO (some centres not stated)
- IC50 (Acetylcholinesterase [4]): > 10000 nM
- IC50 (Cholinesterase): > 10000 nM

Compound: CC(C)[C@H]1N[C@H]2CC[C@]34C[C@]35C(=O)C[C@]3(C)[C@@H]([C@H](C)N(C)C)C(O)C[C@@]3(C)[C@@H]5CC[C@H]4[C@]2(C)CO1 (some centres not stated)
- IC50 (Acetylcholinesterase [4]): 820 nM
- IC50 (Cholinesterase): > 10000 nM

Compound: CC1=N[C@H]2CC=C3C[C@H]4C(=O)C[C@]5(C)[C@@H]([C@H](C)N(C)C)[C@H](O)C[C@@]5(C)[C@@H]4CC[C@H]3[C@]2(C)CO1
- IC50 (Acetylcholinesterase [1]): 6120 nM
- IC50 (Acetylcholinesterase [2]): 5240 nM
- IC50 (Cholinesterase): > 10000 nM
- IC50 (Acetylcholinesterase [3]): 2790 nM

Compound: CC(C)C1=N[C@H]2CC[C@H]3C=C4C(=O)C[C@]5(C)[C@@H]([C@H](C)N(C)C)[C@H](O)C[C@@]5(C)[C@@H]4CC[C@H]3[C@]2(C)CO1
- IC50 (Acetylcholinesterase [4]): 110 nM
- IC50 (Cholinesterase): 1450 nM

Compound: CCC(CC)C(=O)N[C@H]1CC=C2C[C@H]3C(=O)C[C@]4(C)[C@@H]([C@H](C)N(C)C)[C@H](O)C[C@@]4(C)[C@@H]3CC[C@H]2[C@]1(C)CO
- IC50 (Cholinesterase): > 10000 nM

Compound: CC[C@H](C)C1=N[C@H]2CC=C3C[C@H]4C(=O)C[C@]5(C)[C@@H]([C@H](C)N(C)C)[C@H](O)C[C@@]5(C)[C@@H]4CC[C@H]3[C@]2(C)CO1
- IC50 (Acetylcholinesterase [1]): 1360 nM
- IC50 (Acetylcholinesterase [2]): 265 nM
- IC50 (Cholinesterase): > 10000 nM
- IC50 (Acetylcholinesterase [3]): 237 nM

Compound: CC(C)C1=N[C@H]2CC=C3CC4C(=O)C[C@]5(C)[C@@H]([C@H](C)N(C)C)[C@H](O)C[C@@]5(C)[C@@H]4CC[C@H]3[C@]2(C)CO1 (some centres not stated)
- IC50 (Acetylcholinesterase [1]): 756 nM
- IC50 (Acetylcholinesterase [2]): 299 nM
- IC50 (Acetylcholinesterase [4]): 31 nM
- IC50 (Cholinesterase): > 1000 nM
- IC50 (Acetylcholinesterase [3]): 385 nM

Compound: C[C@@H]([C@H]1[C@H](O)C[C@@]2(C)[C@@H]3CC[C@@H]4C(=CC[C@@H]5N=C(c6ccccc6)OC[C@]54C)C[C@H]3C(=O)C[C@]12C)N(C)C
- IC50 (Cholinesterase): > 10000 nM

Compound: C[C@@H]([C@H]1[C@H](O)C[C@@]2(C)[C@@H]3CC[C@@H]4C(=CC[C@@H]5N=C(Cc6ccccc6)OC[C@]54C)C[C@H]3C(=O)C[C@]12C)N(C)C
- IC50 (Cholinesterase): 380 nM

Compound: CC(C)C1=N[C@H]2CC=C3C[C@H]4C(=O)C[C@]5(C)[C@@H]([C@H](C)N(C)C)[C@H](OC(=O)C(C)(C)C)C[C@@]5(C)[C@@H]4CC[C@H]3[C@]2(C)CO1
- IC50 (Acetylcholinesterase [1]): 1380 nM
- IC50 (Acetylcholinesterase [2]): 839 nM
- IC50 (Acetylcholinesterase [4]): 110 nM
- IC50 (Acetylcholinesterase [3]): 724 nM

Compound: CC(=O)O[C@@H]1C[C@@]2(C)[C@@H]3CC[C@@H]4C(=CC[C@@H]5N=C(C(C)C)OC[C@]54C)C[C@H]3C(=O)C[C@]2(C)[C@H]1[C@H](C)N(C)C
- IC50 (Acetylcholinesterase [4]): 380 nM

Compound: CCC(C)C1=N[C@H]2CC=C3C[C@H]4C(=O)C[C@]5(C)[C@@H]([C@H](C)N(C)C)[C@H](O)C[C@@]5(C)[C@@H]4CC[C@H]3[C@]2(C)CO1 (some centres not stated)
- IC50 (Cholinesterase): > 10000 nM

Compound: CCC1=N[C@H]2CC=C3C[C@H]4C(=O)C[C@]5(C)[C@@H]([C@H](C)N(C)C)[C@H](O)C[C@@]5(C)[C@@H]4CC[C@H]3[C@]2(C)CO1
- IC50 (Cholinesterase): > 10000 nM

Compound: CC(C)C(=O)N[C@H]1CC=C2C[C@H]3C(=O)C[C@]4(C)[C@@H]([C@H](C)N(C)C)[C@H](O)C[C@@]4(C)[C@@H]3CC[C@H]2[C@]1(C)CO (racemic)
- IC50 (Cholinesterase): 1930 nM
